Test results published in patent US20100087466A1, “NOVEL SMALL MOLECULE DNAK INHIBITORS” (priority 2008, published 2010).
Values after ≈ are worked out from the molar mass of the structure shown. Counter-ions that a name gives are not always drawn. Like-named read-outs stand apart in the source and are kept apart here. Non-standard residues stand in square brackets, D forms with d. Residues, ends and D or L forms follow the SMILES beside them. ξ: configuration not given here. *: point of attachment. Phe(4-NH2) = Nc1ccc(C[C@H](N)C(=O)O)cc1; 2Nal = N[C@@H](Cc1ccc2ccccc2c1)C(=O)O; Hydrocinnamoyl = O=C(CCc1ccccc1)*; Hyp = O=C(O)[C@@H]1C[C@@H](O)CN1; NH(CH2)3Ph = c1ccc(CCCN*)cc1; 2Pyrimidinyl = c1cnc(*)nc1; ξR = N=C(N)NCCCC(N)C(=O)O; Octanoyl = CCCCCCCC(=O)*; Orn = NCCC[C@H](N)C(=O)O; Piperidide = C1CCN(*)CC1; Cbz = O=C(OCc1ccccc1)*; Boc = CC(C)(C)OC(=O)*; Bn = c1ccc(C*)cc1; NHBu = CCCCN*

What was measured:
DnaK = DnaK (Escherichia coli, UniProt P0A6Y8); experiment: DnaK Inhibition Assay (DnaK induced refolding of denatured firefly luciferase); type: biochemical, E. coli; conditions: DnaK 200 nM, DnaJ 100 nM, GrpE 400 nM
Protocol: Inhibition of the bacterial DnaK chaperone system may be evaluated by inhibition of the DnaK induced refolding of denatured firefly luciferase. More specifically, firefly luciferase is denatured by treatment with 8N guanidium hydrochloride at room temperature for 30 mins and then 5° C. for 1 h. After dilution into cold MOPS buffer augmented with ATP (2.5 mM) and DTT (12.5 mM) and standing for a further hour, the denatured luciferase is refolded by addition to a mixture of chaperone proteins in MOPS buffer, resulting in a reaction mixture containing denatured luciferase (24 nM), DnaK (200 nM), DnaJ (100 nM) and GrpE (400 nM). The extent of refolding is determined by addition of a luciferase substrate and measurement of the emitted chemoluminescence. In this format the substrate is the commercially available luciferase “Steady-Glo” reagent from Promega, Inc. Inhibition of DnaK induced refolding is determined by premixing the chaperone proteins with the test agent at concentrations of test agent ranging from 1-100 μg/mL. The extent of refolding is compared to that with no test reagent, and the IC50 is estimated by fitting the data to a standard sigmoidal dose-response curve.
Inhibition of the bacterial DnaK chaperone system was evaluated by inhibition of the DnaK induced refolding of denatured firefly luciferase. Firefly luciferase was denatured by treatment with 8N guanidium hydrochloride at room temperature for 30 mins and then 5° C. for 1 h. After dilution into cold MOPS buffer augmented with ATP (2.5 mM) and DTT (12.5 mM) and standing for a further hour, the denatured luciferase was refolded by addition to a mixture of chaperone proteins in MOPS buffer, resulting in a reaction mixture containing denatured luciferase (24 nM), DnaK (200 nM), DnaJ (100 nM) and GrpE (400 nM). The extent of refolding was determined by addition of a luciferase substrate and measurement of the emitted chemoluminescence. In this format the substrate is the commercially available luciferase “Steady-Glo” reagent from Promega, Inc. Inhibition of DnaK induced refolding was determined by premixing the chaperone proteins with the test agent at concentrations of test agent ranging from 1-100 μg/mL. The extent of refolding was compared to that with no test reagent, and the IC50 was estimated by fitting the data to a standard sigmoidal dose-response curve.
IC50 is defined as the concentration in μM at which 50% inhibition of DnaK induced refolding of denatured firefly luciferase occurs.

E. coli (ATCC 25922) = experiment: Antibacterial activity against E. coli (MIC); type: cell-based; conditions: Escherichia coli, ATCC25922
[1] = read-out: DnaK IC50(μg/ml) (converted)

DnaK, sequence (P0A6Y8 2-638): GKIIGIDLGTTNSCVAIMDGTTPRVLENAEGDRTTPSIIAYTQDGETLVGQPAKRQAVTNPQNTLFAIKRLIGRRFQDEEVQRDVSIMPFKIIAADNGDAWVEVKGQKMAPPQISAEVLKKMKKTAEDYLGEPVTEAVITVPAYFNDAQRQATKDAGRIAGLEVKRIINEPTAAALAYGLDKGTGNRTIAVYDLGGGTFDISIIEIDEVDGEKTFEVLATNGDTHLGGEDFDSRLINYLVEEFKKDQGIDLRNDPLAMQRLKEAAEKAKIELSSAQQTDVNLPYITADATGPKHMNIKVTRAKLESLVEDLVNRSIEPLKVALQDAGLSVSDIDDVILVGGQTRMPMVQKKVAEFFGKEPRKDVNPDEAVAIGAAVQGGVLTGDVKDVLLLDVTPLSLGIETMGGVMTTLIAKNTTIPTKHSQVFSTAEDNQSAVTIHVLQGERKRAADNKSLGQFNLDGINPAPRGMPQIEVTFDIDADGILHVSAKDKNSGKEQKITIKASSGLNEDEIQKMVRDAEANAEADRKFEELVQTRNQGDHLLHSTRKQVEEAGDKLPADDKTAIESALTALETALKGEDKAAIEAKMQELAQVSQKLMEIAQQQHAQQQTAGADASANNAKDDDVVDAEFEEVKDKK

| Compound | IC50 (DnaK; read-out: DnaK IC50) | IC50 (DnaK; [1]) | MIC (E. coli (ATCC 25922)) |
| --- | --- | --- | --- |
| CCCCCCCC(=O)N[C@@H](Cc1ccc(OCc2ccccc2)cc1)C(=O)N[C@@H](CC(C)C)C(=O)N1CCC[C@H]1C(=O)NCCNC(=N)N [Structure 30, Octanoyl-Tyr(Bzl)-Leu-Pro-NH(CH2)2 NH—C(═NH)—NH2 trifluoroacetate] | 19 µM | 21.7 µM | 32 µg/mL |
| CC(=O)N[C@@H](Cc1ccc(O)cc1)C(=O)N[C@@H](CC(C)C)C(=O)N1CCC[C@H]1C(=O)NC(CCCNC(=N)N)C(N)=O (some centres unmarked) [Structure 34] (Ac-YLP[ξR]-NH2) | – | – | > 256 µg/mL |
| CCCCCCCC(=O)N[C@@H](Cc1ccc(OCc2ccccc2)cc1)C(=O)N[C@@H](CC(C)C)C(=O)N1CCC[C@H]1C(=O)N[C@H](CCCNC(=N)N)C(=O)OC [Structure 26, Octanoyl-Tyr(Bzl)-Leu-Pro-Arg-OMe trifluoroacetate] (Octanoyl-Y(Bn)LP[dR]-OMe) | 30 µM | 34.7 µM | 32 µg/mL |
| CC(=O)N[C@@H](Cc1ccc(OCc2ccccc2)cc1)C(=O)N[C@@H](CC(C)C)C(=O)N1CCC[C@H]1C(=O)N[C@@H](CCCN)C(=O)N1CCC[C@H]1C(=O)NCCCc1ccccc1 [Structure 20, Ac-Tyr(Bzl)-Leu-Pro-Orn-Pro-NH(CH2)3Ph] (Ac-Y(Bn)LP[Orn]P-{NH(CH2)3Ph}) | 16 µM | 20 µM | – |
| CCC(C)[C@H](NC(=O)[C@H](Cc1ccc(O)cc1)NC(C)=O)C(=O)N[C@@H](CO)C(=O)O (stereo partly drawn) [Structure 24, Ac-Tyr-Ile-Ser-OH] | 240 µM | 309 µM | – |
| CCCCCCCC(=O)N[C@@H](Cc1ccc(OCc2ccccc2)cc1)C(=O)N[C@@H](CC(C)C)C(=O)N1C[C@H](O)C[C@H]1C(=O)N[C@H](CCCNC(=N)N)C(=O)N1CCCCC1 [Structure 32, Octanoyl-Tyr(Bzl)-Leu-Hyp-ArgN(CH2)5 trifluoroacetate] (Octanoyl-Y(Bn)L[Hyp][dR]-Piperidide) | 12 µM | 14.2 µM | 64 µg/mL |
| COC(=O)[C@@H]1CCCN1C(=O)[C@H](CC(C)C)NC(=O)[C@H](Cc1ccc(NC(=O)OCc2ccccc2)cc1)NC(C)=O [Structure 6, Ac-4-(NHCbz)Phe-Leu-Pro-OMe] (Ac-[Phe(4-NH2)](Cbz)-Leu-Pro-OMe) | 147 µM | 420 µM | – |
| CC(=O)N[C@@H](Cc1ccc(O)cc1)C(=O)N[C@@H](CC(C)C)C(=O)N1CCC[C@H]1C(=O)N[C@@H](CCCNC(=N)N)C(=O)N1CCCCC1 [Structure 4, Ac-Tyr-Leu-Pro-Arg-N(CH2)5.TFA] (Ac-YLPR-Piperidide) | 3 µM | 6.09 µM | – |
| CCCCCCCC(=O)N[C@@H](Cc1ccc(OCc2ccccc2)cc1)C(=O)N[C@@H](CC(C)C)C(=O)N1CCC[C@H]1C(=O)N1CC[C@H](NC(=N)N)C1 [Structure 29, Octanoyl-Tyr(Bzl)-Leu-Pro-(S)-(3-guanidino)pyrrolidinyl amide] | 10 µM | 11.1 µM | 32 µg/mL (≈ 44.6 µM) |
| CC(=O)N[C@@H](Cc1ccc(NC(=O)OCc2ccccc2)cc1)C(=O)N[C@@H](CC(C)C)C(=O)N1CCC[C@H]1C(=O)O [Structure 7, Ac-4-(NHCbz)Phe-Leu-Pro-OH] (Ac-[Phe(4-NH2)](Cbz)-Leu-Pro-OH) | 72 µM | 224 µM | – |
| CC(=O)N[C@@H](Cc1ccc2ccccc2c1)C(=O)N[C@@H](CC(C)C)C(=O)N1CCC[C@H]1C(=O)O [Structure 9] (Ac-[2Nal]-Leu-Pro-OH) | 62 µM | 282 µM | – |
| CCCCCCCC(=O)N[C@@H](Cc1ccc(OCc2ccccc2)cc1)C(=O)N[C@@H](CC(C)C)C(=O)N1CCC[C@H]1C(=O)N1CCCC(CNC(=N)N)C1 (stereo partly drawn) [Structure 33, Octanoyl-Tyr(Bzl)-Leu-Pro-(3-guanidinomethylpiperidine) trifluoroacetate] | 23 µM | 26.8 µM | 16 µg/mL |
| CCCCCCCC(=O)N[C@@H](Cc1ccc(O)cc1)C(=O)N[C@@H](CC(C)C)C(=O)N1CCC[C@H]1C(=O)N[C@H](CCCNC(=N)N)C(=O)N1CCCCC1 [Structure 27, Octanoyl-Tyr-Leu-Pro-Arg-N(CH2)5 trifluoroacetate] (Octanoyl-YLP[dR]-Piperidide) | 8 µM | 9.45 µM | – |
| CCCCCCCC(=O)N[C@@H](Cc1ccc(OCc2ccccc2)cc1)C(=O)N[C@@H](CC(C)C)C(=O)N1CCC[C@H]1C(=O)N[C@H](CCCNC(=N)N)C(=O)N1CCCCC1 [Structure 28, Octanoyl-Tyr(Bzl)-Leu-Pro-Arg-N(CH2)5 trifluoroacetate] (Octanoyl-Y(Bn)LP[dR]-Piperidide) | 13 µM | 14.4 µM | 32 µg/mL |
| CC(C)C[C@H](NC(=O)[C@H](Cc1ccc(O)cc1)NC(=O)OC(C)(C)C)C(=O)N1CCC[C@H]1C(=O)N[C@@H](CCCNC(=N)N)C(=O)N1CCC[C@H]1C(=O)NCCCc1ccccc1 [Structure 12, Boc-Tyr-Leu-Pro-Arg-Pro-NH(CH2)3Ph] (Boc-YLPRP-{NH(CH2)3Ph}) | 11 µM | 12.8 µM | – |
| CC(=O)N[C@@H](Cc1ccc(OCc2ccccc2)cc1)C(=O)N[C@@H](CC(C)C)C(=O)N1CCC[C@H]1C(=O)NCCCCN [Structure 5, Ac-Tyr(Bzl)-Leu-Pro-NH(CH2)4NH2.TFA] | 45 µM | 106 µM | – |
| CC(=O)N[C@@H](Cc1ccc(OCc2ccccc2)cc1)C(=O)N[C@@H](CC(C)C)C(=O)N1CCC[C@H]1C(=O)N[C@@H](CCCNC(=O)OC(C)(C)C)C(=O)N1CCC[C@H]1C(=O)NCCCc1ccccc1 [Structure 17, Ac-Tyr(Bzl)-Leu-Pro-Orn(Boc)-Pro-NH(CH2)3Ph] (Ac-Y(Bn)LP[Orn](Boc)P-{NH(CH2)3Ph}) | 21 µM | 20 µM | – |
| CC(=O)N[C@@H](Cc1ccc(OCc2ccccc2)cc1)C(=O)N[C@@H](CC(C)C)C(=O)N1CCC[C@H]1C(=O)N[C@@H](CCCNc1ncccn1)C(=O)N1CCC[C@H]1C(=O)NCCCc1ccccc1 [Structure 21, Ac-Tyr(Bzl)-Leu-Pro-Orn(2-pyrimidine)-Pro-NH(CH2)3Ph] (Ac-Y(Bn)LP[Orn](2Pyrimidinyl)P-{NH(CH2)3Ph}) | 22 µM | 22.6 µM | – |
| CCC(C)[C@H](NC(=O)[C@H](Cc1ccc(O)cc1)NC(C)=O)C(=O)N[C@@H](CO)C(=O)OC (stereo partly drawn) [Structure 23, Ac-Tyr-Ile-Ser-OMe] | 101 µM | 530 µM | – |
| CC(=O)N[C@@H](Cc1ccc(O)cc1)C(=O)N[C@@H](CC(C)C)C(=O)N1CCC[C@H]1C(=O)N[C@@H](CCCNC(=N)N)C(=O)N1CCC[C@H]1C(=O)NCCCc1ccccc1 [Structure 16, Ac-Tyr-Leu-Pro-Arg-Pro-NH(CH2)3Ph.TFA] (Ac-YLPRP-{NH(CH2)3Ph}) | 24 µM | 32.3 µM | – |
| COC(=O)[C@@H]1CCCN1C(=O)[C@H](CC(C)C)NC(=O)[C@H](Cc1ccc2ccccc2c1)NC(C)=O [Structure 8, Ac-2-Nal-Leu-Pro-OMe] (Ac-[2Nal]-Leu-Pro-OMe) | 30 µM | 127 µM | – |
| Ac-YLPRP-NH2 [Structure 1, Ac-Tyr-Leu-pro-Arg-Pro-NH2] | 58 µM | 67.1 µM | – |
| CC(=O)N[C@@H](Cc1ccc(OCc2ccccc2)cc1)C(=O)N[C@@H](CC(C)C)C(=O)N1CCC[C@H]1C(=O)N[C@@H](CCCNC(=N)N)C(=O)N1CCCCC1 [Structure 14] (Ac-Y(Bn)LPR-Piperidide) | 25 µM | 37.5 µM | – |
| CC(=O)N[C@@H](Cc1ccc(O)cc1)C(=O)N[C@@H](CC(C)C)C(=O)N1CCC[C@H]1C(=O)N[C@@H](CCCNC(=O)OC(C)(C)C)C(=O)N1CCC[C@H]1C(=O)NCCCc1ccccc1 [Structure 18, Ac-Tyr-Leu-Pro-Orn(Boc)-Pro-NH(CH2)3Ph] (Ac-YLP[Orn](Boc)P-{NH(CH2)3Ph}) | 54 µM | 63.8 µM | – |
| CC(C)C[C@H](NC(=O)CCc1ccccc1)C(=O)N1CCC[C@H]1C(=O)N[C@@H](CCCNC(=N)N)C(=O)N1CCCCC1 [Structure 13, Ph(CH2)2C(O)-Leu-Pro-Arg-N(CH2)5] (Hydrocinnamoyl-Leu-Pro-Arg-Piperidide) | 12 µM | 29.1 µM | – |
| CC(=O)N[C@@H](Cc1ccc(O)cc1)C(=O)N[C@@H](CC(C)C)C(=O)N1CCC[C@H]1C(=O)N[C@@H](CCCN)C(=O)N1CCC[C@H]1C(=O)NCCCc1ccccc1 [Structure 19, Ac-Tyr-Leu-Pro-Orn-Pro-NH(CH2)3Ph] (Ac-YLP[Orn]P-{NH(CH2)3Ph}) | 40 µM | 60.4 µM | – |
| CCCCNC(=O)[C@@H]1CCCN1C(=O)[C@H](CCCNC(=N)N)NC(=O)[C@@H]1CCCN1C(=O)[C@H](CC(C)C)NC(=O)[C@H](Cc1ccc(O)cc1)NC(C)=O [Structure 15, Ac-Tyr-Leu-Pro-Arg-Pro-NHBu.TFA] (Ac-YLPRP-NHBu) | 24 µM | 39.1 µM | – |
